Test results taken from patent publication US20190152957A1, “PYRIDIN-3-YL ACETIC ACID DERIVATIVES AS INHIBITORS OF HUMAN IMMUNODEFICIENCY VIRUS REPLICATION” (ViiV HEALTHCARE UK (NO.5) LIMITED, priority 2016, published 2019).
Like-named read-outs stand apart in the source and are kept apart here.

Test system: recombinant NL-RLuc virus (HIV NL4-3 with Renilla Luciferase gene) in MT-2 cells
Assay: Inhibition of HIV replication (NL-RLuc virus, luciferase readout in MT-2 cells)
Format: cell-based
Conditions: MT2, 120 h
Description: Inhibition of HIV Replication:
A recombinant NL-RLuc proviral clone was constructed in which a section of the nef gene from NL4-3 was replaced with the Renilla Luciferase gene. This virus is fully infectious and can undergo multiple cycles of replication in cell culture. In addition, the luciferous reporter provides a simple and easy method for quantitating the extent of virus growth and consequently, the antiviral activity of test compounds. The plasmid pNLRLuc contains the proviral NL-Rluc DNA cloned into pUC18 at the PvuII site. The NL-RLuc virus was prepared by transfection of 293T cells with the plasmid pNLRLuc. Transfections were performed using the LipofectAMINE PLUS kit from Invitrogen (Carlsbad, Calif.) according to the manufacturer and the virus generated was titered in MT-2 cells. For susceptibility analyses, the titrated virus was used to infect MT-2 cells in the presence of compound, and after 5 days of incubation, cells were processed and quantitated for virus growth by the amount of expressed luciferase. Assay media was RPMI 1640 supplemented with 10% heat inactivated fetal bovine serum (FBS), 100 units/ml penicillin G/100 units/ml streptomycin, 10 mM HEPES buffer pH 7.55 and 2 mM L-glutamine. The results from at least 2 experiments were used to calculate the EC50 values. Luciferase was quantitated using the Dual Luciferase kit from Promega (Madison, Wis.). Susceptibility of viruses to compounds was determined by incubation in the presence of serial dilutions of the compound. The 50% effective concentration (EC50) was calculated by using the exponential form of the median effect equation where (Fa)=1/[1+(ED50/drug conc.)^m](Johnson V A, Byington R T. Infectivity Assay. In Techniques in HIV Research. ed. Aldovini A, Walker BD. 71-76. New York: Stockton Press. 1990). Activity equal to A refers to a compound having an EC50≤100 nM, while B and C denote compounds having an EC50 between 100 nM and 1 uM (B) or >1 uM (C).

Row | SMILES | EC50 (read-out: Activity) | EC50 (read-out: EC50 μM)
1 | Cc1cccc(-n2cc(CN3CCc4cc(-c5c(C)nc(C)c([C@H](OC(C)(C)C)C(=O)O)c5N5CCC(C)(C)CC5)ccc4C3)cn2)c1 [Compound 41, (S)-2-(tert-butoxy)-2-(4-(4,4-dimethylpiperidin-1-yl)-2,6-dimethyl-5-(2-((1-(m-tolyl)-1H-pyrazol-4-yl)methyl)-1,2,3,4-tetrahydroisoquinolin-6-yl)pyridin-3-yl)acetic acid] | < 0.1 µM | –
2 | Cc1cc(CN2CCc3cc(-c4c(C)nc(C)c([C@H](OC(C)(C)C)C(=O)O)c4N4CCC(C)(C)CC4)ccc3C2)[nH]n1 [Compound 42, (S)-2-(tert-butoxy)-2-(4-(4,4-dimethylpiperidin-1-yl)-2,6-dimethyl-5-(2-((3-methyl-1H-pyrazol-5-yl)methyl)-1,2,3,4-tetrahydroisoquinolin-6-yl)pyridin-3-yl)acetic acid] | < 0.1 µM | –
3 | Cc1nc(CN2CCc3cc(-c4c(C)nc(C)c([C@H](OC(C)(C)C)C(=O)O)c4N4CCC(C)(C)CC4)ccc3C2)c[nH]1 [Compound 43, (S)-2-(tert-butoxy)-2-(4-(4,4-dimethylpiperidin-1-yl)-2,6-dimethyl-5-(2-((2-methyl-1H-imidazol-4-yl)methyl)-1,2,3,4-tetrahydroisoquinolin-6-yl)pyridin-3-yl)acetic acid] | < 0.1 µM | –
4 | CCn1cc(CN2CCc3cc(-c4c(C)nc(C)c([C@H](OC(C)(C)C)C(=O)O)c4N4CCC(C)(C)CC4)ccc3C2)cn1 [Compound 44, (S)-2-(tert-butoxy)-2-(4-(4,4-dimethylpiperidin-1-yl)-5-(2-((1-ethyl-1H-pyrazol-4-yl)methyl)-1,2,3,4-tetrahydroisoquinolin-6-yl)-2,6-dimethylpyridin-3-yl)acetic acid] | < 0.1 µM | –
5 | Cc1nc(C)c([C@H](OC(C)(C)C)C(=O)O)c(N2CCC(C)(C)CC2)c1-c1ccc2c(c1)CCN(Cc1cccnc1OC(C)C)C2 [Compound 45, (S)-2-(tert-butoxy)-2-(4-(4,4-dimethylpiperidin-1-yl)-5-(2-((2-isopropoxypyridin-3-yl)methyl)-1,2,3,4-tetrahydroisoquinolin-6-yl)-2,6-dimethylpyridin-3-yl)acetic acid] | < 0.1 µM | –
6 | Cc1nc(C)c([C@H](OC(C)(C)C)C(=O)O)c(N2CCC(C)(C)CC2)c1-c1ccc2c(c1)CCN(Cc1nnn[nH]1)C2 [Compound 46, (S)-2-(5-(2-((1H-tetrazol-5-yl)methyl)-1,2,3,4-tetrahydroisoquinolin-6-yl)-4-(4,4-dimethylpiperidin-1-yl)-2,6-dimethylpyridin-3-yl)-2-(tert-butoxy)acetic acid] | < 0.1 µM | –
7 | COc1ccc(CN2CCc3cc(-c4c(C)nc(C)c([C@H](OC(C)(C)C)C(=O)O)c4N4CCC(C)(C)CC4)ccc3C2)cn1 [Compound 47, (S)-2-(tert-butoxy)-2-(4-(4,4-dimethylpiperidin-1-yl)-5-(2-((6-methoxypyridin-3-yl)methyl)-1,2,3,4-tetrahydroisoquinolin-6-yl)-2,6-dimethylpyridin-3-yl)acetic acid] | < 0.1 µM | 0.002 µM
8 | COc1ncc(CN2CCc3cc(-c4c(C)nc(C)c([C@H](OC(C)(C)C)C(=O)O)c4N4CCC(C)(C)CC4)ccc3C2)c(OC)n1 [Compound 48, (S)-2-(tert-butoxy)-2-(5-(2-((2,4-dimethoxypyrimidin-5-yl)methyl)-1,2,3,4-tetrahydroisoquinolin-6-yl)-4-(4,4-dimethylpiperidin-1-yl)-2,6-dimethylpyridin-3-yl)acetic acid] | < 0.1 µM | –
9 | COc1ccc(CN2CCc3cc(-c4c(C)nc(C)c([C@H](OC(C)(C)C)C(=O)O)c4N4CCC(C)(C)CC4)ccc3C2)c(OC)n1 [Compound 49, (S)-2-(tert-butoxy)-2-(5-(2-((2,6-dimethoxypyridin-3-yl)methyl)-1,2,3,4-tetrahydroisoquinolin-6-yl)-4-(4,4-dimethylpiperidin-1-yl)-2,6-dimethylpyridin-3-yl)acetic acid] | < 0.1 µM | –
10 | Cc1nc(C)c([C@H](OC(C)(C)C)C(=O)O)c(N2CCC(C)(C)CC2)c1-c1ccc2c(c1)CCN(Cc1cn[nH]c1)C2 [Compound 50, (S)-2-(5-(2-((1H-pyrazol-4-yl)methyl)-1,2,3,4-tetrahydroisoquinolin-6-yl)-4-(4,4-dimethylpiperidin-1-yl)-2,6-dimethylpyridin-3-yl)-2-(tert-butoxy)acetic acid] | < 0.1 µM | –
11 | Cc1nc(C)c([C@H](OC(C)(C)C)C(=O)O)c(N2CCC(C)(C)CC2)c1-c1ccc2c(c1)CCN(Cc1[nH]nnc1[Si](C)(C)C)C2 [Compound 51, (S)-2-(tert-butoxy)-2-(4-(4,4-dimethylpiperidin-1-yl)-2,6-dimethyl-5-(2-((4-(trimethylsilyl)-1H-1,2,3-triazol-5-yl)methyl)-1,2,3,4-tetrahydroisoquinolin-6-yl)pyridin-3-yl)acetic acid] | < 0.1 µM | –
12 | Cc1nc(C)c([C@H](OC(C)(C)C)C(=O)O)c(N2CCC(C)(C)CC2)c1-c1ccc2c(c1)CCN(Cc1ccc(=O)[nH]c1)C2 [Compound 52, (S)-2-(tert-butoxy)-2-(4-(4,4-dimethylpiperidin-1-yl)-2,6-dimethyl-5-(2-((6-oxo-1,6-dihydropyridin-3-yl)methyl)-1,2,3,4-tetrahydroisoquinolin-6-yl)pyridin-3-yl)acetic acid] | 0.1 to 1 µM | –
13 | Cc1n[nH]cc1CN1CCc2cc(-c3c(C)nc(C)c([C@H](OC(C)(C)C)C(=O)O)c3N3CCC(C)(C)CC3)ccc2C1 [Compound 53, (S)-2-(tert-butoxy)-2-(4-(4,4-dimethylpiperidin-1-yl)-2,6-dimethyl-5-(2-((3-methyl-1H-pyrazol-4-yl)methyl)-1,2,3,4-tetrahydroisoquinolin-6-yl)pyridin-3-yl)acetic acid] | < 0.1 µM | 0.061 µM
14 | Cc1nn(C)c(Cl)c1CN1CCc2cc(-c3c(C)nc(C)c([C@H](OC(C)(C)C)C(=O)O)c3N3CCC(C)(C)CC3)ccc2C1 [Compound 54, (S)-2-(tert-butoxy)-2-(5-(2-((5-chloro-1,3-dimethyl-1H-pyrazol-4-yl)methyl)-1,2,3,4-tetrahydroisoquinolin-6-yl)-4-(4,4-dimethylpiperidin-1-yl)-2,6-dimethylpyridin-3-yl)acetic acid] | < 0.1 µM | –
15 | CCN1CCc2cc(-c3c(C)nc(C)c([C@H](OC(C)(C)C)C(=O)O)c3N3CCC(C)(C)CC3)ccc2C1 [Compound 55, (S)-2-(tert-butoxy)-2-(4-(4,4-dimethylpiperidin-1-yl)-5-(2-ethyl-1,2,3,4-tetrahydroisoquinolin-6-yl)-2,6-dimethylpyridin-3-yl)acetic acid] | 0.1 to 1 µM | –
